Laboratory results from ChEMBL document CHEMBL1145152, “Design, synthesis, and antifolate activity of new analogues of piritrexim and other diaminopyrimidine dihydrofolate reductase inhibitors with omega-carboxyalkoxy or omega-carboxy-1-alkynyl substitution in the side chain” (J Med Chem, 2005).

Columns and labels:
[1] = Selectivity index measured as IC50(Rat)/IC50(Mycobacterium avium)
[2] = target: T1, Bifunctional dihydrofolate reductase-thymidylate synthase (Toxoplasma gondii, UniProt Q07422)
T1 sequence (Q07422 whole entry): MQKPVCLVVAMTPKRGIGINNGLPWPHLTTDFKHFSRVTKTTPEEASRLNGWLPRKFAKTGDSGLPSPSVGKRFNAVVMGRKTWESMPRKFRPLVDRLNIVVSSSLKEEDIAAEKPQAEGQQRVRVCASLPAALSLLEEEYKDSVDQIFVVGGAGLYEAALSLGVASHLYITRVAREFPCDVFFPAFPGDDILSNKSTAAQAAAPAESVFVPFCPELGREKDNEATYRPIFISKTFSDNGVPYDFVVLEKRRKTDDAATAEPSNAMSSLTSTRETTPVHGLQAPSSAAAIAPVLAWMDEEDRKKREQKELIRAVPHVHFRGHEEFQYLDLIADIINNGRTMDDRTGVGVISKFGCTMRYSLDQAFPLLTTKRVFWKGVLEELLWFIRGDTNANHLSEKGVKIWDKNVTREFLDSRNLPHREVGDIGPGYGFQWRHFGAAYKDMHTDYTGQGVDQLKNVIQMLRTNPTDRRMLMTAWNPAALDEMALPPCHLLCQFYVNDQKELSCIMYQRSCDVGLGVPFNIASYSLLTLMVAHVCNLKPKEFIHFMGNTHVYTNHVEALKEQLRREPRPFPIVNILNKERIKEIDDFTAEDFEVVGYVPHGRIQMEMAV
Description: Inhibitory concentration against Toxoplasma gondii DHFR

Dihydrofolate reductase [3] = target: T2, Dihydrofolate reductase (Rattus norvegicus, UniProt Q920D2)
T2 sequence (Q920D2 whole entry): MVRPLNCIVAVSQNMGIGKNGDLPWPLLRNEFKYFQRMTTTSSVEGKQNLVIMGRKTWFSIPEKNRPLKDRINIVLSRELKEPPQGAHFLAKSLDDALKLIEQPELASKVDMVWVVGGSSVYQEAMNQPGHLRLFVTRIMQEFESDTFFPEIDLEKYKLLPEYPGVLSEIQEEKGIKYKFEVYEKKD
Description: Inhibitory concentration against rat DHFR

Dihydrofolate reductase [4] = target: T3, Dihydrofolate reductase (Mycobacterium avium, UniProt O30463)
T3 sequence (O30463 whole entry): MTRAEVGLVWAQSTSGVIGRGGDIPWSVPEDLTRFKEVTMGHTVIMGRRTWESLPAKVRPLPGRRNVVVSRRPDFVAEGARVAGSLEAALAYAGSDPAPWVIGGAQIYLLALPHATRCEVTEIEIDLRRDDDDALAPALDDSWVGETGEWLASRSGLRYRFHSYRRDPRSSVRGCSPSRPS
Description: Inhibitory concentration against Mycobacterium avium DHFR

Dihydrofolate reductase [5] = target: T4, Dihydrofolate reductase (Pneumocystis carinii, UniProt P16184)
T4 sequence (P16184 whole entry): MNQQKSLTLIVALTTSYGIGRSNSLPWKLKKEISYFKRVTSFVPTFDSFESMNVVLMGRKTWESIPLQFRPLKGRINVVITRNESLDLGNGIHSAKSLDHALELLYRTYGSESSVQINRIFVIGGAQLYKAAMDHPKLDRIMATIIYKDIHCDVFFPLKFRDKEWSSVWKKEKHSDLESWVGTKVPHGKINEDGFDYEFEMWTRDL
Description: Inhibitory concentration against Pneumocystis carinii DHFR

[6] = Concentration causing inhibition of CCRF-CEM human leukemic lymphoblasts growth in 72 hr culture; type: functional, cell-based
[7] = Concentration causing inhibition of CCRF-CEM human leukemic lymphoblasts growth in a 72 hr culture; type: functional, cell-based

Structure (SMILES)	Selectivity index [1]	IC50 [2]	IC50 (Dihydrofolate reductase [3])	IC50 (Dihydrofolate reductase [4])	IC50 (Dihydrofolate reductase [5])	IC50 [6]	IC50 [7]
COc1cc(Cc2cnc(N)nc2N)cc(C#CCCC(=O)O)c1Br	1300	15 nM	630 nM	0.47 nM	71 nM	–	–
COc1ccc(C#CCCCC(=O)O)c(Cc2cnc3nc(N)nc(N)c3c2C)c1	18	5.8 nM	24 nM	1.3 nM	1.2 nM	2800 nM	–
COc1ccc(I)cc1Cc1cnc2nc(N)nc(N)c2c1C	5.4	4.1 nM	5 nM	0.92 nM	5.8 nM	–	–
COc1ccc(I)c(Cc2cnc3nc(N)nc(N)c3c2C)c1	2.2	5.8 nM	4 nM	1.8 nM	3.8 nM	–	–
COc1ccc(C#CCCCCC(=O)O)cc1Cc1cnc2nc(N)nc(N)c2c1C	5.8	3.2 nM	4 nM	0.69 nM	1.8 nM	–	–
CCOC(=O)CCCCCOc1ccc(OC)c(Cc2cnc3nc(N)nc(N)c3c2C)c1	1.8	13 nM	21 nM	12 nM	35 nM	–	–
COc1ccc(C#CCCC(=O)O)c(Cc2cnc3nc(N)nc(N)c3c2C)c1	96	4.1 nM	55 nM	0.57 nM	0.65 nM	–	–
COc1ccc(C#CCCCC(=O)O)cc1Cc1cnc2nc(N)nc(N)c2c1C	5.6	4.3 nM	5.7 nM	1 nM	1.4 nM	–	6100 nM
COc1ccc(OCCCC(=O)O)cc1Cc1cnc2nc(N)nc(N)c2c1C	8.5	1.9 nM	2.2 nM	0.26 nM	0.43 nM	3700 nM	–
COc1ccc(OCCCC(=O)O)c(Cc2cnc3nc(N)nc(N)c3c2C)c1	28	2.3 nM	9.1 nM	0.32 nM	0.17 nM	5300 nM	–
COc1ccc(OCc2ccccc2)c(Cc2cnc3nc(N)nc(N)c3c2C)c1	20	16 nM	170 nM	8.6 nM	96 nM	–	–
CCOC(=O)CCCOc1ccc(OC)cc1Cc1cnc2nc(N)nc(N)c2c1C	17	10 nM	93 nM	5.6 nM	83 nM	–	–
COc1ccc(OC)c(Cc2cnc3nc(N)nc(N)c3c2C)c1 [PIRITREXIM]	–	–	–	–	–	–	13 nM
CCOC(=O)CCCCOc1ccc(OC)c(Cc2cnc3nc(N)nc(N)c3c2C)c1	1.5	11 nM	14 nM	9.4 nM	28 nM	–	–
CCOC(=O)CCCOc1ccc(OC)c(Cc2cnc3nc(N)nc(N)c3c2C)c1	2.3	3.4 nM	4.2 nM	1.8 nM	6.5 nM	–	–
Nc1nc(N)c2nc(CN3c4ccccc4C=Cc4c(C#CCCCC(=O)O)cccc43)cnc2n1	210	21 nM	1300 nM	6.3 nM	12 nM	–	–
COc1ccc(OCCCCCC(=O)O)cc1Cc1cnc2nc(N)nc(N)c2c1C	5.9	2 nM	2 nM	0.35 nM	1.3 nM	–	–
Nc1nc(N)c2nc(CN3c4ccccc4C=Cc4c(C#CCCC(=O)O)cccc43)cnc2n1	190	77 nM	560 nM	2.9 nM	230 nM	–	–
COc1ccc(OCCCCC(=O)O)cc1Cc1cnc2nc(N)nc(N)c2c1C	7.5	2.3 nM	2.2 nM	0.29 nM	0.51 nM	–	–
COc1ccc(C#CCCC(=O)O)cc1Cc1cnc2nc(N)nc(N)c2c1C	5.6	0.46 nM	0.32 nM	0.057 nM	0.097 nM	–	–
